Here are results for three compounds from ChEMBL document CHEMBL5532685 (J Nat Prod, 2024).

For one assay, the target named is Procathepsin L (Homo sapiens, UniProt P07711). As to the kind of experiment: Inhibition of human cathepsin L.
The target in the next assay is Prothrombin (Homo sapiens, UniProt P00734). Put plainly: Inhibition of human thrombin.
The target of assay [1] is Programmed cell death protein 1/Programmed cell death 1 ligand 1 (Homo sapiens, UniProt Q15116+Q9NZQ7). As to the kind of experiment: Inhibition of PD-1/PD-L1 (unknown origin) protein protein interaction. Type of assay: protein-complex assay.
The target in assay [2] is Spike glycoprotein/Angiotensin-converting enzyme 2 (Severe acute respiratory syndrome coronavirus 2, UniProt P0DTC2+Q9BYF1). Put plainly: Inhibition of His-tagged SARS-CoV2 USA-WA1/2020 spike-RBD/biotinylated Fc-tagged ACE2 (unknown origin) protein protein interaction incubated for 1 hr by Alphascreen assay.
For assay [3], the target named is Replicase polyprotein 1ab (Severe acute respiratory syndrome coronavirus 2, UniProt P0DTD1). Put plainly: Inhibition of SARS-CoV2 MPro using Dabcyl-KTSAVLQSGFRKME-Edans as substrate by fluorescence based analysis.

Spike glycoprotein/Angiotensin-converting enzyme 2, sequence (Q9BYF1 18-805 limits assumed, other chains not shown): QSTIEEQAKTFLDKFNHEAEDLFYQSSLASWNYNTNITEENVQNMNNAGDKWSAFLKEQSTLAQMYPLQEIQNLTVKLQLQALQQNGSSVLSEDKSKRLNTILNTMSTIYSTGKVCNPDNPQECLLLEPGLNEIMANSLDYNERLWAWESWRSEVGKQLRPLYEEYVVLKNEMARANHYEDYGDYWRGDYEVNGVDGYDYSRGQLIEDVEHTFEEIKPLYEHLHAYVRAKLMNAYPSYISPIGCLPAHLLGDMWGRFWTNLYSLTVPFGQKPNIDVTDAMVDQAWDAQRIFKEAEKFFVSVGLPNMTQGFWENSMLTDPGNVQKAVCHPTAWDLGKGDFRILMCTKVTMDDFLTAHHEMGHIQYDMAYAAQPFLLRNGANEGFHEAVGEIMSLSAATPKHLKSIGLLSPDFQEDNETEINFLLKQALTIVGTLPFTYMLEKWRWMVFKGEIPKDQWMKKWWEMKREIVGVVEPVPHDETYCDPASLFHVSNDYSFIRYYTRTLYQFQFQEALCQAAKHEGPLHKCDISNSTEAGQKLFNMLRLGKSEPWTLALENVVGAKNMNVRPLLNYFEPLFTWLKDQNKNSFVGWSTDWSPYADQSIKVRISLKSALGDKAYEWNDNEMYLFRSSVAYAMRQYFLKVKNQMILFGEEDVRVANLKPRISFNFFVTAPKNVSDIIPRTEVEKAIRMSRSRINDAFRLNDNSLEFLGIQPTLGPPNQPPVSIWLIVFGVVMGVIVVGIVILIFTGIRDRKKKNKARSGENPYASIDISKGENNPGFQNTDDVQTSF
Programmed cell death protein 1/Programmed cell death 1 ligand 1, sequence (Q15116 whole entry): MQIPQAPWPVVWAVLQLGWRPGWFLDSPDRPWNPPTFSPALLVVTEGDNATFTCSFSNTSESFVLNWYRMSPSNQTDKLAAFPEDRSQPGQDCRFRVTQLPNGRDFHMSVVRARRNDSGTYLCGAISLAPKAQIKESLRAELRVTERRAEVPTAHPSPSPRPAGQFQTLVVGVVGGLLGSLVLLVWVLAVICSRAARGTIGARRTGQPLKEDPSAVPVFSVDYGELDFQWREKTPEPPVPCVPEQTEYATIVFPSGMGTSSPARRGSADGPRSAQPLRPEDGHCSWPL
Programmed cell death protein 1/Programmed cell death 1 ligand 1, sequence (Q9NZQ7 whole entry): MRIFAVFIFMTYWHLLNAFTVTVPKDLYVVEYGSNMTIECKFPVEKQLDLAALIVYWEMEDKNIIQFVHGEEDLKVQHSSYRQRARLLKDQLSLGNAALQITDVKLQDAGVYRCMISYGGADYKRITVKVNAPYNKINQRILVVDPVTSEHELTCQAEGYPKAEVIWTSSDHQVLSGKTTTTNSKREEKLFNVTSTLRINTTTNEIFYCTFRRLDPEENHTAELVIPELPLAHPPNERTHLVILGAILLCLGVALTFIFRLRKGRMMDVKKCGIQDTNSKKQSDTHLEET
Procathepsin L, sequence (P07711 whole entry): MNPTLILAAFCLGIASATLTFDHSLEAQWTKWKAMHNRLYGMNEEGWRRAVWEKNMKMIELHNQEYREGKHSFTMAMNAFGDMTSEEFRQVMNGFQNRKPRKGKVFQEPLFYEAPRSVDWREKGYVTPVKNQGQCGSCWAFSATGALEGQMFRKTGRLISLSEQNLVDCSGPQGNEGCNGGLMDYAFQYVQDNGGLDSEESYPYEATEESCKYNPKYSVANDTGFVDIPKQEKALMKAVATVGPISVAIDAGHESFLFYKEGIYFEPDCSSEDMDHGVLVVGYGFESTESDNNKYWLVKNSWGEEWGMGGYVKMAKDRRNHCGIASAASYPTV

Turning to `CCCCCCCCCC(C)CCC(C)C(=O)O` (configuration not stated), the figures for the IC50 (against Procathepsin L; at Prothrombin; in assay [1]) were 218 µM, > 390 µM and > 390 µM, respectively.
Take `CCCCCCCCCC(C)CCC(C)C(=O)OC` (configuration not stated): the IC50 in assay [2] and in assay [3] was > 370 µM each time.
For the compound `CCCCCCCCCC(C)CCC(C)C(=O)OCc1ccccc1` (configuration not stated), the IC50 in assay [2] and in assay [3] was > 289 µM throughout.

By IC50 is commonly meant the point on the concentration scale where inhibition reaches its midpoint. A lower IC50 goes with higher potency.
